Patent US20200399242A1, “NOVEL COMPOUNDS” (INFLAZOME LIMITED, priority 2018, published 2020)
Structures can show the parent of a compound that is named as a salt.

Target: T1, NLRP3 (Homo sapiens, UniProt Q96P20)
T1 construct: Seed THP-1 cells (25,000 cells/well) containing 1.0 μg/ml LPS in 40 μl of RPMI medium; host or cells: THP-1 cells
Assay: THP-1 cells pyroptosis assay (LPS-primed, nigericin-triggered, resazurin read-out)
Type: cell-based
Settings: 1 μg/ml LPS, compound 3 hrs, nigericin 5 μM 1 hr, resazurin viability
Experimental: THP-1 cells (ATCC #TIB-202) were grown in RPMI containing L-glutamine (Gibco #11835) supplemented with 1 mM sodium pyruvate (Sigma #S8636) and penicillin (100 units/ml)/streptomycin (0.1 mg/ml) (Sigma #P4333) in 10% Fetal Bovine Serum (FBS) (Sigma #F0804). The cells were routinely passaged and grown to confluency (˜10^6 cells/ml). On the day of the experiment, THP-1 cells were harvested and resuspended into RPMI medium (without FBS). The cells were then counted and viability (>90%) checked by Trypan blue (Sigma #T8154). Appropriate dilutions were made to give a concentration of 625,000 cells/ml. To this diluted cell solution was added LPS (Sigma #L4524) to give a 1 μg/ml Final Assay Concentration (FAC). 40 μl of the final preparation was aliquoted into each well of a 96-well plate. The plate thus prepared was used for compound screening. The following method step-by-step assay was followed for compound screening. • 1. Seed THP-1 cells (25,000 cells/well) containing 1.0 μg/ml LPS in 40 μl of RPMI medium (without FBS) in 96-well, black walled, clear bottom cell culture plates coated with poly-D-lysine (VWR #734-0317) • 2. Add 5 μl compound (8 points half-log dilution, with 10 μM top dose) or vehicle (DMSO 0.1% FAC) to the appropriate wells • 3. Incubate for 3 hrs at 37° C., 5% CO2 • 4. Add 5 μl nigericin (Sigma #N7143) (FAC 5 μM) to all wells • 5. Incubate for 1 hr at 37° C., 5% CO2 • 6. At the end of the incubation period, spin plates at 300×g for 3 mins and remove supernatant • 7. Then add 50 μl of resazurin (Sigma #R7017) (FAC 100 μM resazurin in RPMI medium without FBS) and incubate plates for a further 1-2 hrs at 37° C. and 5% CO2 • 8. Plates were read in an Envision reader at Ex 560 nm and Em 590 nm • 9. IC50 data is fitted to a non-linear regression equation (log inhibitor vs response-variable slope 4-parameters) The results of the pyroptosis assay are summarised in Table 1 below as THP IC50.

T1 sequence (Q96P20 whole entry): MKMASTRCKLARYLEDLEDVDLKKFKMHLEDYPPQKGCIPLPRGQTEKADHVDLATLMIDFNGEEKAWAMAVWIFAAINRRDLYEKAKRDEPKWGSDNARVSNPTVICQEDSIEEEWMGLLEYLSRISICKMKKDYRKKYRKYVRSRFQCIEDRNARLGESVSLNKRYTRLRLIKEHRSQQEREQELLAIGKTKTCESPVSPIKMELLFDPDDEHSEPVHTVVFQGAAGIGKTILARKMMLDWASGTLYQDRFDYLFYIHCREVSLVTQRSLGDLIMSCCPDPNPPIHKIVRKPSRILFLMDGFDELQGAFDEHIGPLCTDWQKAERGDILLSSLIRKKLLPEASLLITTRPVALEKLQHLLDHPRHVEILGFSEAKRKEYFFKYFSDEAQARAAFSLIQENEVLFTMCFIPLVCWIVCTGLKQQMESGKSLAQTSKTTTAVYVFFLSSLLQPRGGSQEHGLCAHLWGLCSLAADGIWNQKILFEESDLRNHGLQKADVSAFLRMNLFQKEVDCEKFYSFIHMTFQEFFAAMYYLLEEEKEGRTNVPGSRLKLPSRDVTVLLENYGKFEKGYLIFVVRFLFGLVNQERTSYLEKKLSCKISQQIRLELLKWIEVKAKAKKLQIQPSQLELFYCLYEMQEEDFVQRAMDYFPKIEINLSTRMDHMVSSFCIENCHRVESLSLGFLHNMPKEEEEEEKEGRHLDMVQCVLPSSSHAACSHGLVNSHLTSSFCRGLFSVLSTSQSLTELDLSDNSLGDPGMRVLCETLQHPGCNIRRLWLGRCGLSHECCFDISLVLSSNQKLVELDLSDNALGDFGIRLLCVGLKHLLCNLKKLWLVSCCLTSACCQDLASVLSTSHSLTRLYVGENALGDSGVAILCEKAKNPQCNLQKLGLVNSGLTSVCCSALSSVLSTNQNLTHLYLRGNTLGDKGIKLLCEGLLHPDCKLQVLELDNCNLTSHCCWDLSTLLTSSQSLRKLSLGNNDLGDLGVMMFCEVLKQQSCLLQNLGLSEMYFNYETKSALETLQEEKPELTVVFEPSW

Row | SMILES | IC50
1 | COc1cc(-c2cc(F)cc(C(C)C)c2CC(=O)NS(=O)(=O)c2ccc(=O)n(C)c2)ccn1 [Example 1, 2-(4-Fluoro-2-isopropyl-6-(2-methoxypyridin-4-yl)phenyl)-N-((1-methyl-6-oxo-,6-dihydropyridin-3-yl)sulfonyl)acetamide, potassium salt] | 5 to 10 µM
2 | COc1cc(-c2cc(F)cc(C(C)C)c2CC(=O)NS(=O)(=O)c2ccc(=O)n(C(C)C)c2)ccn1 [Example 2, 2-(4-Fluoro-2-isopropyl-6-(2-methoxypyridin-4-yl)phenyl)-N-((1-isopropyl-6-oxo-1,6-dihydropyridin-3-yl)sulfonyl)acetamide, potassium salt] | 1 to 5 µM
3 | COc1cc(-c2cc(F)cc(C(C)C)c2CC(=O)NS(=O)(=O)c2cn(C)c(=O)n(C)c2=O)ccn1 [Example 3, N-((1,3-Dimethyl-2,4-dioxo-1,2,3,4-tetrahydropyrimidin-5-yl)sulfonyl)-2-(4-fluoro-2-isopropyl-6-(2-methoxypyridin-4-yl)phenyl) acetamide] | ≤ 1 µM
